Test [1] deals with T1, human serotonin transporters (Homo sapiens, UniProt P31645).
T1 construct: expressed in transfected cells
The test can be described thus: Serotonin transporter binding assay, [3H]-citalopram competition on HEK-hSERT cell membranes. The note with it: 1 nM [3H]-citalopram displacement, read-out: SERT IC50. Here is the method:
HEK-293 cells that stably express human serotonin transporters (HEK-hSERT cells) were grown at 37° C. in 5% CO2 as a monolayer in medium consisting of EMEM supplemented with 10% fetal bovine serum and G418 sulfate (500 μg/ml). To prepare membranes for radioligand binding experiments, cells were rinsed twice with phosphate-buffered saline (138 mM NaCl, 4.1 mM KCl, 5.1 mM Na2PO4, 1.5 mM […], 11.1 mM glucose, pH 7.4). Cells were transferred from plates to polypropylene tubes (16×100 mm), centrifuged at 1,200×g for 5 min and were frozen at −80° C. until assay. Following centrifugation, pellets were resuspended by homogenization in buffer consisting of 50 mM Tris (pH 7.7 at 25° C.), 120 mM NaCl and 5 mM KCl and then centrifuged at 32,000×g for 10 min. Following centrifugation, supernatants were discarded and pellets were resuspended in buffer consisting of 50 mM Tris (pH 7.4 at 25° C.), 150 mM NaCl and 5 mM KCl. […] Amount of radioligand bound in the presence and absence of competitor was analyzed by plotting (−)log drug concentration versus the amount of radioligand specifically bound. […] Ki values were calculated using the method of Cheng and Prusoff Cheng and Prusoff [Cheng, Y.-C. and Prusoff, W. H., Biochemical Pharmacology, Vol. 22, pp. 3099-3108, Pergamon Press (1973)].

For test [2], the target named is T2, neurokinin-1 (NK-1) receptor (Homo sapiens, UniProt P25103).
T2 construct: endogenously expresses the neurokinin-1 (NK-1) receptor; endogenous in cells; host or cells: U373 human glioblastoma-astrocytoma cells (membranes)
T2 sequence (P25103 whole entry): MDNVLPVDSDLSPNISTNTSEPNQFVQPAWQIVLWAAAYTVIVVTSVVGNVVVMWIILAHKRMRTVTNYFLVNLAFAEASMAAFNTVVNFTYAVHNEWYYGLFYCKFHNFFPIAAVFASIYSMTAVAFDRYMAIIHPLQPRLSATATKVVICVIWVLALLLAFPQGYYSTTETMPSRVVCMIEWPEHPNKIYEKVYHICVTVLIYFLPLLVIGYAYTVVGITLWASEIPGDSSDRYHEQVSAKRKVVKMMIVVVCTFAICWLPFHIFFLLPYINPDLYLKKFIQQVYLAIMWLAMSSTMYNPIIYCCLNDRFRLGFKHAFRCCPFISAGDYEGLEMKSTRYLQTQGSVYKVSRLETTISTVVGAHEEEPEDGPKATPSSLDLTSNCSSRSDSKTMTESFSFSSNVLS
The test can be described thus: NK-1 binding assay, [125I] Substance P competition on U373 cell membranes. Conditions: Bolton Hunter labeled [125I] Substance P displacement. Here is the method:
U373 cells, a human glioblastoma-astrocytoma cell line that endogenously expresses the neurokinin-1 (NK-1) receptor, were grown in a monolayer culture at 37° C. in 5% CO2 and fed with Minimum Essential Medium (MEM) supplemented with 10% fetal bovine serum. Membranes were prepared as follows: Cells were washed twice with ice-cold phosphate-buffered saline (pH 7.4) and then incubated for 5 to 10 minutes with ice-cold 10 mM Tris buffer (pH 7.4) containing 5 mM EDTA. Cells were removed from plates, homogenized, and centrifuged at 32,000×g for 20 minutes. The resulting supernatant was discarded, and the pellet resuspended by homogenization in 50 mM Tris buffer (pH 7.4) containing 1 mM EDTA and centrifuged at 32,000×g for 20 minutes. […]
On the day of an experiment the membrane preparation was thawed, homogenized and diluted with NK-1 binding assay buffer to the appropriate concentration. […] The amount of radioligand bound in the presence and absence of competitor was analyzed by plotting (−)log drug concentration versus the amount of radioligand specifically bound. […] Ki values were calculated using the method of Cheng and Prusoff [Cheng, Y.-C. and Prusoff, W. H., Biochemical Pharmacology, Vol. 22, pp. 3099-3108, Pergamon Press (1973)].

Our source for the IC50 values is patent US7494986B2, “Cycloalkylamine derivatives as NK-1/SSRI antagonists” (Bristol-Myers Squibb Company, priority 2004, dated 2009).

The term IC50 denotes the concentration at which inhibition is half-maximal.

T1 sequence (P31645 whole entry): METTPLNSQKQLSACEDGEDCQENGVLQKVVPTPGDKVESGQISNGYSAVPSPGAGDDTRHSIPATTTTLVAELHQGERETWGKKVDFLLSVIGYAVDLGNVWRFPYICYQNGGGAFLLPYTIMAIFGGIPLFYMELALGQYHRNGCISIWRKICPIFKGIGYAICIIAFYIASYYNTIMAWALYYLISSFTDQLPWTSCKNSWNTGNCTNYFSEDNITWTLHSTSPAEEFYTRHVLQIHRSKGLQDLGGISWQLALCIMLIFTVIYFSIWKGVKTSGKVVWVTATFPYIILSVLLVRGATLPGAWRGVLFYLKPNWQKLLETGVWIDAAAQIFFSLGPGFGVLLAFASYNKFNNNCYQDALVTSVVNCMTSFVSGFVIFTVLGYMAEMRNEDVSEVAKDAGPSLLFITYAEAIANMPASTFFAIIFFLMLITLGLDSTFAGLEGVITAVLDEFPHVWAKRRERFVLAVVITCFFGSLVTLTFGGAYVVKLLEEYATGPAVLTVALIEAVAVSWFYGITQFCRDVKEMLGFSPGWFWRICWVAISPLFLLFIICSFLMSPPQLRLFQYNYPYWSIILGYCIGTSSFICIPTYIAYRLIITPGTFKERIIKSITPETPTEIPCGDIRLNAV

Take `FC(F)(F)c1cc(COCC2(c3ccccc3)CCCCNCC2)cc(C(F)(F)F)c1` (stereo not shown) [Example 1, 4-((3,5-bis(trifluoromethyl)benzyloxy)methyl)-4-phenylazocane]: the IC50 in test [1] is 20 to 100 nM; in test [2] it was below 20 nM.
With `FC(F)(F)c1cc(COCC2(c3ccccc3)CCCNCCC2)cc(C(F)(F)F)c1` [Example 2, 5-((3,5-bis(trifluoromethyl)benzyloxy)methyl)-5-phenylazocane], the IC50 in test [1] is 20 to 100 nM; in test [2], below 20 nM.
